Reference: PubChem BioAssay AID1259407 (Chemical Carcinogenesis Research Information System (CCRIS), 2018)
The source made the active and inactive calls. How the calls were made is not given here.

System: CCRIS mutagenicity, Ames/micronucleus/aberration tests
Assay: CCRIS mutagenicity studies
[1] = Test System: AMES SALMONELLA TYPHIMURIUM, Strain/Indicator: TA98, Metabolic Activation: NONE, Method: PREINCUBATION
[2] = Test System: AMES SALMONELLA TYPHIMURIUM, Strain/Indicator: TA100, Metabolic Activation: NONE, Method: PREINCUBATION
[3] = Test System: AMES SALMONELLA TYPHIMURIUM, Strain/Indicator: TA98, Metabolic Activation: NONE, Method: STANDARD PLATE
[4] = Test System: AMES SALMONELLA TYPHIMURIUM, Strain/Indicator: TA98, Metabolic Activation: RAT, LIVER, S-9, AROCLOR 1254, Method: STANDARD PLATE
[5] = Test System: AMES SALMONELLA TYPHIMURIUM, Strain/Indicator: TA100, Metabolic Activation: NONE, Method: STANDARD PLATE
[6] = Test System: AMES SALMONELLA TYPHIMURIUM, Strain/Indicator: TA100, Metabolic Activation: RAT, LIVER, S-9, AROCLOR 1254, Method: STANDARD PLATE
[7] = Test System: AMES SALMONELLA TYPHIMURIUM, Strain/Indicator: TA1535, Metabolic Activation: NONE, Method: STANDARD PLATE

## Cc1oc(=O)oc1CN1CCN(c2cc3c(cc2F)c(=O)c(C(=O)O)c2n3C(C)S2)CC1 (stereo not given)
[1]
  mutagenic call: inactive; negative
Test System: AMES SALMONELLA TYPHIMURIUM, Strain/Indicator: TA98, Metabolic Activation: RAT, LIVER, S-9, PHENOBARBITAL AND 5,6-BENZOFLAVONE, Method: PREINCUBATION
  mutagenic call: inactive; negative
[2]
  mutagenic call: inactive; negative
Test System: AMES SALMONELLA TYPHIMURIUM, Strain/Indicator: TA100, Metabolic Activation: RAT, LIVER, S-9, PHENOBARBITAL AND 5,6-BENZOFLAVONE, Method: PREINCUBATION
  mutagenic call: inactive; negative
Test System: AMES SALMONELLA TYPHIMURIUM, Strain/Indicator: TA1535, Metabolic Activation: NONE, Method: PREINCUBATION
  mutagenic call: inactive; negative
Test System: AMES SALMONELLA TYPHIMURIUM, Strain/Indicator: TA1535, Metabolic Activation: RAT, LIVER, S-9, PHENOBARBITAL AND 5,6-BENZOFLAVONE, Method: PREINCUBATION
  mutagenic call: inactive; negative
Test System: AMES SALMONELLA TYPHIMURIUM, Strain/Indicator: TA1537, Metabolic Activation: NONE, Method: PREINCUBATION
  mutagenic call: inactive; negative
Test System: AMES SALMONELLA TYPHIMURIUM, Strain/Indicator: TA1537, Metabolic Activation: RAT, LIVER, S-9, PHENOBARBITAL AND 5,6-BENZOFLAVONE, Method: PREINCUBATION
  mutagenic call: inactive; negative
Test System: E. COLI, Strain/Indicator: WP2 UVRA, Metabolic Activation: NONE, Method: PREINCUBATION
  mutagenic call: inactive; negative
Test System: E. COLI, Strain/Indicator: WP2 UVRA, Metabolic Activation: RAT, LIVER, S-9, PHENOBARBITAL AND 5,6-BENZOFLAVONE, Method: PREINCUBATION
  mutagenic call: inactive; negative

## N=c1c2ncn(C(c3ccccc3)c3ccccc3)c2ncn1O
Test System: AMES SALMONELLA TYPHIMURIUM, Strain/Indicator: TA97, Metabolic Activation: NONE, Method: STANDARD PLATE
  mutagenic call: inactive; negative
Test System: AMES SALMONELLA TYPHIMURIUM, Strain/Indicator: TA97, Metabolic Activation: RAT, LIVER, S-9, AROCLOR 1254, Method: STANDARD PLATE
  mutagenic call: inactive; negative
[3]
  mutagenic call: inactive; negative
[4]
  mutagenic call: active; positive
[5]
  mutagenic call: inactive; negative
[6]
  mutagenic call: inactive; negative

## [N-]=[N+]=NCCO
[7]
  mutagenic call: active; positive

## C[C@]12CC[C@H](O)C[C@@H]1CC[C@@H]1[C@@H]2CC[C@]2(C)NC(=O)CC[C@@H]12
[3]
  mutagenic call: inactive; negative
[4]
  mutagenic call: inactive; negative
[5]
  mutagenic call: inactive; negative
[6]
  mutagenic call: inactive; negative
[7]
  mutagenic call: inactive; negative
Test System: AMES SALMONELLA TYPHIMURIUM, Strain/Indicator: TA1535, Metabolic Activation: RAT, LIVER, S-9, AROCLOR 1254, Method: STANDARD PLATE
  mutagenic call: inactive; negative
Test System: AMES SALMONELLA TYPHIMURIUM, Strain/Indicator: TA1537, Metabolic Activation: NONE, Method: STANDARD PLATE
  mutagenic call: inactive; negative
Test System: AMES SALMONELLA TYPHIMURIUM, Strain/Indicator: TA1537, Metabolic Activation: RAT, LIVER, S-9, AROCLOR 1254, Method: STANDARD PLATE
  mutagenic call: inactive; negative

## C1=CC2OC2c2ncccc21 (stereo not given)
[5]
  mutagenic call: inactive; negative
Test System: AMES SALMONELLA TYPHIMURIUM, Strain/Indicator: TA100, Metabolic Activation: RAT, LIVER, S-9, AROCLOR 1254 (10% OR 20%), Method: STANDARD PLATE
  mutagenic call: active; positive

## CC(Br)C(=O)Nc1ccccc1 (stereo not given)
Test System: AMES SALMONELLA TYPHIMURIUM, Strain/Indicator: TA100, Metabolic Activation: MOUSE, LIVER, S-9, AROCLOR 1254, Method: STANDARD PLATE
  mutagenic call: active; positive
[5]
  mutagenic call: inactive; negative

## O=[N+]([O-])c1ccc(-c2ncn[nH]2)o1
Test System: E. COLI, Strain/Indicator: WP2 UVRA, Metabolic Activation: NONE, Method: SPOT
  mutagenic call: active; positive

## Cc1c(C(C)C)c(=O)n(-c2ccccc2)n1C
Test System: AMES SALMONELLA TYPHIMURIUM, Strain/Indicator: TA98, Metabolic Activation: GUINEA PIG, LIVER, S-9, PCB, Method: PREINCUBATION
  mutagenic call: inactive; negative
Test System: AMES SALMONELLA TYPHIMURIUM, Strain/Indicator: TA98, Metabolic Activation: HAMSTER, LIVER, S-9, PCB, Method: PREINCUBATION
  mutagenic call: inactive; negative
Test System: AMES SALMONELLA TYPHIMURIUM, Strain/Indicator: TA98, Metabolic Activation: MOUSE, LIVER, S-9, PCB, Method: PREINCUBATION
  mutagenic call: inactive; negative
[1]
  mutagenic call: inactive; negative
Test System: AMES SALMONELLA TYPHIMURIUM, Strain/Indicator: TA98, Metabolic Activation: RAT, LIVER, S-9, PCB, Method: PREINCUBATION
  mutagenic call: inactive; negative
Test System: AMES SALMONELLA TYPHIMURIUM, Strain/Indicator: TA100, Metabolic Activation: GUINEA PIG, LIVER, S-9, PCB, Method: PREINCUBATION
  mutagenic call: inactive; negative
Test System: AMES SALMONELLA TYPHIMURIUM, Strain/Indicator: TA100, Metabolic Activation: HAMSTER, LIVER, S-9, PCB, Method: PREINCUBATION
  mutagenic call: inactive; negative
Test System: AMES SALMONELLA TYPHIMURIUM, Strain/Indicator: TA100, Metabolic Activation: MOUSE, LIVER, S-9, PCB, Method: PREINCUBATION
  mutagenic call: inactive; negative
[2]
  mutagenic call: inactive; negative
Test System: AMES SALMONELLA TYPHIMURIUM, Strain/Indicator: TA100, Metabolic Activation: RAT, LIVER, S-9, PCB, Method: PREINCUBATION
  mutagenic call: inactive; negative

## CN(CCCl)c1ccc(/C=C/C2=[N+](C)c3ccccc3C2(C)C)cc1
Test System: Ames Salmonella typhimurium, Strain/Indicator: TA98, Metabolic Activation: None, Method: Preincubation
  mutagenic call: inactive; negative
Test System: Ames Salmonella typhimurium, Strain/Indicator: TA98, Metabolic Activation: Rat, Liver, S-9, Aroclor 1254, Method: Preincubation
  mutagenic call: inactive; negative
Test System: Ames Salmonella typhimurium, Strain/Indicator: TA100, Metabolic Activation: None, Method: Preincubation
  mutagenic call: inactive; negative
Test System: Ames Salmonella typhimurium, Strain/Indicator: TA100, Metabolic Activation: Rat, Liver, S-9, Aroclor 1254, Method: Preincubation
  mutagenic call: inactive; negative
Test System: Ames Salmonella typhimurium, Strain/Indicator: TA102, Metabolic Activation: None, Method: Preincubation
  mutagenic call: inactive; negative
Test System: Ames Salmonella typhimurium, Strain/Indicator: TA102, Metabolic Activation: Rat, Liver, S-9, Aroclor 1254, Method: Preincubation
  mutagenic call: inactive; negative
Test System: Ames Salmonella typhimurium, Strain/Indicator: TA1535, Metabolic Activation: None, Method: Preincubation
  mutagenic call: inactive; negative
Test System: Ames Salmonella typhimurium, Strain/Indicator: TA1535, Metabolic Activation: Rat, Liver, S-9, Aroclor 1254, Method: Preincubation
  mutagenic call: inactive; negative

## [Cl][Pd-2]([Cl])([Cl])([Cl])([Cl])[Cl]
Test System: AMES SALMONELLA TYPHIMURIUM, Strain/Indicator: TA97A, Metabolic Activation: NONE, Method: STANDARD PLATE
  mutagenic call: inactive; negative
Test System: AMES SALMONELLA TYPHIMURIUM, Strain/Indicator: TA97A, Metabolic Activation: RAT, LIVER, S-9, PHENOBARBITAL AND 5,6-BENZOFLAVONE, Method: STANDARD PLATE
  mutagenic call: inactive; negative
Test System: AMES SALMONELLA TYPHIMURIUM, Strain/Indicator: TA97A, Metabolic Activation: RAT, LIVER, S-9, PHENOBARBITAL AND BETA-NAPHTHOFLAVONE, Method: STANDARD PLATE
  mutagenic call: inactive; negative
[3]
  mutagenic call: inactive; negative
Test System: AMES SALMONELLA TYPHIMURIUM, Strain/Indicator: TA98, Metabolic Activation: RAT, LIVER, S-9, PHENOBARBITAL AND 5,6-BENZOFLAVONE, Method: STANDARD PLATE
  mutagenic call: inactive; negative
Test System: AMES SALMONELLA TYPHIMURIUM, Strain/Indicator: TA98, Metabolic Activation: RAT, LIVER, S-9, PHENOBARBITAL AND BETA-NAPHTHOFLAVONE, Method: STANDARD PLATE
  mutagenic call: inactive; negative
[5]
  mutagenic call: inactive; negative
Test System: AMES SALMONELLA TYPHIMURIUM, Strain/Indicator: TA100, Metabolic Activation: RAT, LIVER, S-9, PHENOBARBITAL AND 5,6-BENZOFLAVONE, Method: STANDARD PLATE
  mutagenic call: inactive; negative
Test System: AMES SALMONELLA TYPHIMURIUM, Strain/Indicator: TA100, Metabolic Activation: RAT, LIVER, S-9, PHENOBARBITAL AND BETA-NAPHTHOFLAVONE, Method: STANDARD PLATE
  mutagenic call: inactive; negative
Test System: AMES SALMONELLA TYPHIMURIUM, Strain/Indicator: TA102, Metabolic Activation: NONE, Method: STANDARD PLATE
  mutagenic call: inactive; negative
Test System: AMES SALMONELLA TYPHIMURIUM, Strain/Indicator: TA102, Metabolic Activation: RAT, LIVER, S-9, PHENOBARBITAL AND 5,6-BENZOFLAVONE, Method: STANDARD PLATE
  mutagenic call: inactive; negative
Test System: AMES SALMONELLA TYPHIMURIUM, Strain/Indicator: TA102, Metabolic Activation: RAT, LIVER, S-9, PHENOBARBITAL AND BETA-NAPHTHOFLAVONE, Method: STANDARD PLATE
  mutagenic call: inactive; negative
